The values below come from patent US20260176265A1 (Cancer Research Technology Limited, priority 2022, published 2026).

The target in assay [1] is CtermHisTag-mEGFR Triple Mutant - C797S, L858R, T790M (Homo sapiens, UniProt P00533, C797S/L858R/T790M). Briefly: TR-FRET probe displacement assay, EGFR triple mutant. In kind it is binding. The note with it: T790M 1.25 nM, probe 100 nM, 30 mins room temperature. In short, it runs like this: (§1)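 Ten-point compound series, 100000 to 3 nM final, tested against His-tagged EGFR (wild type or C797S/L858R/T790M) for probe displacement. TR-FRET read at Ex337 nm, Em490/520 nm; run in technical replicate, biological duplicate.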
In general terms: In TR-FRET formats the signal depends on donor and acceptor labels being close together.

Assay [2] has as its target CtermHisTag-mEGFR Wild type (Homo sapiens, UniProt P00533). Description: TR-FRET probe displacement assay, EGFR wild type. In kind it is binding. The note with it: EGFR wild type 1.25 nM, probe 100 nM, 30 mins room temperature. In short, it runs like this:
as §1

Assay [3] deals with T1, Phospho-EGFR (Tyr1068) in H1975 cells (Homo sapiens, UniProt P00533, L858R/T790M).
T1 construct: host or cells: H1975
Description: HTRF pEGFR/total EGFR assay in H1975 cells. The class given is cell-based. The note with it: compound 3 hours, ratio pEGFR/total EGFR. In short, it runs like this:
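H1975 cells (EGFR L858R/T790M) adhered 24 h, then compound-treated for 3 h in duplicate, 0.1% DMSO final. Lysates read by HTRF at 665/620 nm for phospho-Tyr1068 and total EGFR. Value is pEGFR/total EGFR ratio as % of 0 uM control.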

Assay [4] has as its target T2, Phospho-EGFR (Tyr1068) in H1975 C797S cells (Homo sapiens, UniProt P00533, C797S/L858R/T790M).
T2 construct: endogenous in cells; host or cells: H1975 C797S (CRISPR-edited in house from ATCC CRL-5908)
Description: HTRF pEGFR/total EGFR assay in H1975 C797S cells. In kind it is cell-based. The note with it: H1975 C797S cells (CRISPR), compound 3 hours, ratio pEGFR/total EGFR. Summed up: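 H1975 cells carrying CRISPR-engineered EGFR C797S (with L858R/T790M) were exposed to compounds for 3 h at 0.1% DMSO, in duplicate. Lysates were read with HTRF kits for pEGFR Tyr1068 and total EGFR at 665/620 nm. Values are the pEGFR/total EGFR ratio as percent of the 0 uM control.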

The target of assay [5] is T3, Phospho-EGFR (Tyr1068) in A431 cells (Homo sapiens, UniProt P00533).
T3 construct: endogenous in cells; host or cells: A431
Description: HTRF pEGFR/total EGFR assay in A431 cells (EGF stimulated). The class given is cell-based. The note with it: compound 2.5 hours then 100 ng/ml EGF 30 mins, ratio pEGFR/total EGFR. Summed up:
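A431 cells pretreated with compounds 2.5 h (0.1% DMSO), then stimulated with 100 ng/ml EGF for 30 min. Lysates assayed by HTRF for phospho-EGFR (Tyr1068) and total EGFR, read at 665/620 nm. Values are pEGFR/total EGFR ratio as percentage of 0uM control.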

T3 sequence (P00533 25-1210): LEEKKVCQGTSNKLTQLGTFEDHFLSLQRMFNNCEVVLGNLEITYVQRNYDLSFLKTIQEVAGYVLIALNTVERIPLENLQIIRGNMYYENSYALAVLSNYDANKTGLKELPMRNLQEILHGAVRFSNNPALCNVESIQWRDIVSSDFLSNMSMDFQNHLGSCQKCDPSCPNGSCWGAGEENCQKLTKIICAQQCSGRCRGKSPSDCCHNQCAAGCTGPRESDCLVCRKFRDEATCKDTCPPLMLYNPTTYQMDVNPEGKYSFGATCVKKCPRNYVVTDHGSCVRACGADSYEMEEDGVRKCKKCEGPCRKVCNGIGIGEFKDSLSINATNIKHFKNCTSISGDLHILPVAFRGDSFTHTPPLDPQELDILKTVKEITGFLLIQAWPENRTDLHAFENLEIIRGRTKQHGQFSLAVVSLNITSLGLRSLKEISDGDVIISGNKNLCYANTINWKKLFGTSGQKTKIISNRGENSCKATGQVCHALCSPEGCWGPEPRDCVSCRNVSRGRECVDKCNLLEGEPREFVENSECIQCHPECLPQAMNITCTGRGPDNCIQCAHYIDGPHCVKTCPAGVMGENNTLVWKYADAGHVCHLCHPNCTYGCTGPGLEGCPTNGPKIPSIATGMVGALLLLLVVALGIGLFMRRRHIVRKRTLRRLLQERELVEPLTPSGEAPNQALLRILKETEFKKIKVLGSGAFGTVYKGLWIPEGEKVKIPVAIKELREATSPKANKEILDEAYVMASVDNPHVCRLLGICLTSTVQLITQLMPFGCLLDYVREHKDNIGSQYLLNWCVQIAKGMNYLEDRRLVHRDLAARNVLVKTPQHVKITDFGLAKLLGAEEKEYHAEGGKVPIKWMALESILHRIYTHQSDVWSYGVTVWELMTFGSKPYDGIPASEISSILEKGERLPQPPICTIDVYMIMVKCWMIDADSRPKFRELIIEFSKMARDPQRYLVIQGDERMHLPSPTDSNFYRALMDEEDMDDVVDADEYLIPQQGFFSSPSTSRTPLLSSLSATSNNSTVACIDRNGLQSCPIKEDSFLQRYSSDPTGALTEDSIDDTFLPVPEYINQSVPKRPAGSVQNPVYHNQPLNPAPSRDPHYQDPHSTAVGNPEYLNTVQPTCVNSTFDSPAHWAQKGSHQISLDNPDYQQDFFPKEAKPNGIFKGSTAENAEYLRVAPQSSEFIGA
CtermHisTag-mEGFR Wild type, sequence (P00533 25-1210): as above
T1 sequence (P00533 25-1210 T790M/L858R): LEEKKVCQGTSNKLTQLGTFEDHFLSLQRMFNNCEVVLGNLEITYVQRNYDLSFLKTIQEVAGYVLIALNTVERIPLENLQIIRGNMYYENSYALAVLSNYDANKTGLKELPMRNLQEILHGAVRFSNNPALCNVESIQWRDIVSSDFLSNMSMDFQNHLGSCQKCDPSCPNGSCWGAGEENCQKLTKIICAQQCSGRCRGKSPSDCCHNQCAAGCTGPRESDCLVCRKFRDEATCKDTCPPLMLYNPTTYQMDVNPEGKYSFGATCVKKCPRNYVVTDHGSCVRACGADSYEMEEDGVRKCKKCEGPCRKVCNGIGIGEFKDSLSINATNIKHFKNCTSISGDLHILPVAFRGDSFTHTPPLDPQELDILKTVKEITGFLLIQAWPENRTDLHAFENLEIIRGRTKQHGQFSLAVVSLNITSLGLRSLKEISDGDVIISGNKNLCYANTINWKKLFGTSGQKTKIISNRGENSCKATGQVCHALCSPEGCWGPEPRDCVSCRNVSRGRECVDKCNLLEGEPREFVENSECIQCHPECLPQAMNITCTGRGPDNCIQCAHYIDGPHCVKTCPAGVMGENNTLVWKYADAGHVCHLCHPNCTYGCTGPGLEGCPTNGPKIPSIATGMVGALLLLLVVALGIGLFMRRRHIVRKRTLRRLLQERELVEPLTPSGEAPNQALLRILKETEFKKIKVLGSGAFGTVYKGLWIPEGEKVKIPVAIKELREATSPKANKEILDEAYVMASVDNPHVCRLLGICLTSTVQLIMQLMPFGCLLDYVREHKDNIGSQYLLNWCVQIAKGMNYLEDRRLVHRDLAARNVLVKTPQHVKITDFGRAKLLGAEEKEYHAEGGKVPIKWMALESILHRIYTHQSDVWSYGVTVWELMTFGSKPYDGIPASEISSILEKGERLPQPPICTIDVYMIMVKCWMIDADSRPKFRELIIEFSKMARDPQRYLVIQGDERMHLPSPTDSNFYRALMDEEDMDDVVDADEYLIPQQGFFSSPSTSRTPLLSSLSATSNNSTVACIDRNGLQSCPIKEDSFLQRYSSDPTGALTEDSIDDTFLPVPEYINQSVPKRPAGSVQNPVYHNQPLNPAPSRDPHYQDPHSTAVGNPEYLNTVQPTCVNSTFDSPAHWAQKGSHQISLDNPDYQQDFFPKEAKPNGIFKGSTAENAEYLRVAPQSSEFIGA
CtermHisTag-mEGFR Triple Mutant - C797S, L858R, T790M, sequence (P00533 25-1210 T790M/C797S/L858R): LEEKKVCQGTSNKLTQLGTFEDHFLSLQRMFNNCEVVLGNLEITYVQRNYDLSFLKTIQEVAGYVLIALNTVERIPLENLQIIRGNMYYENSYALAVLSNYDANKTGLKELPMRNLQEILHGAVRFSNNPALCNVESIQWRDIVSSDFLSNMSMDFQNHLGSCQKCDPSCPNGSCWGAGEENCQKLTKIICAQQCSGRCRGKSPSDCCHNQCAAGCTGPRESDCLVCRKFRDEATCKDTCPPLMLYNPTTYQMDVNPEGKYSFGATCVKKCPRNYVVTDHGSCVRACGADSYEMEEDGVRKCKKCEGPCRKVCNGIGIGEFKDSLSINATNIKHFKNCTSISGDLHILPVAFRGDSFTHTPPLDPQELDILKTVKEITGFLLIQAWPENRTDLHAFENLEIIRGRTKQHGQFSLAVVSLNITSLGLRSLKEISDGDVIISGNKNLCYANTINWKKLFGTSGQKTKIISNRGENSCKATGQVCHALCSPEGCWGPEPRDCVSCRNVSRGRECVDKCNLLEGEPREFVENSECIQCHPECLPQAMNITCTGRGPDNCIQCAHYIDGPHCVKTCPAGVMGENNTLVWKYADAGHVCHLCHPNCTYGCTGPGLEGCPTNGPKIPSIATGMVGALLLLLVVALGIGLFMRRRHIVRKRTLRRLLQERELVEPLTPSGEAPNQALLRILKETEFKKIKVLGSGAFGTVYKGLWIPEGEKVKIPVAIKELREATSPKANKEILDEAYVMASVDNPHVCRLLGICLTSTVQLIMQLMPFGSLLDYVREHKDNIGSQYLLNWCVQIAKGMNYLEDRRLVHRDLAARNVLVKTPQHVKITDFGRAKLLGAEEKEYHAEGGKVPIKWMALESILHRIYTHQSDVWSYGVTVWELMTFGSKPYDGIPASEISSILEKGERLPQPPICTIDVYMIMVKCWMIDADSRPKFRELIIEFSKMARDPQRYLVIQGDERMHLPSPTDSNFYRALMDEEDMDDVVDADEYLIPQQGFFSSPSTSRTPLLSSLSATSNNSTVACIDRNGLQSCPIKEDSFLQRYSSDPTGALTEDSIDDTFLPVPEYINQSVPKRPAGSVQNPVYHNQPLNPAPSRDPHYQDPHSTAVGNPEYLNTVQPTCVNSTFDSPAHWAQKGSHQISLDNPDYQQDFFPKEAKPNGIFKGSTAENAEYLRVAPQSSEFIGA

One may read the IC50 as the concentration that gives 50% inhibition. `C#Cc1cc(N2C(=O)N(C)CC23CCCC3)nc2nc(Nc3ccc(N4CCOCC4)cc3)ncc12` [Example 103, 1-(5-Ethynyl-2-{[4-(morpholin-4-yl)phenyl]amino}pyrido[2,3-d]pyrimidin-7-yl)-3-methyl-1,3-diazaspiro[4.4]nonan-2-one]: the IC50 is 0.02 to 0.1 µM in assay [1]; below 1 µM in assay [2]; below 0.5 µM in assay [3]; below 0.5 µM in assay [4]; 1 to 3 µM in assay [5].

As to `C#Cc1cc(N2C(=O)N(C)CC23CCCC3)nc2nc(Nc3ccc(N4CCN(C5COC5)CC4)cc3)ncc12` [Example 104, 1-[5-Ethynyl-2-([4-[4-(oxetan-3-yl)piperazin-1-yl]phenyl]amino)pyrido[2,3-d]pyrimidin-7-yl]-3-methyl-1,3-diazaspiro[4.4]nonan-2-one], the concentration for half-maximal inhibition (IC50) in assay [1] was 0.02 to 0.1 µM; in assay [2] it was below 1 µM; in assay [3], 1 to 3 µM; in assay [4], 1 to 3 µM; in assay [5], above 3 µM.

As to `C#Cc1cc(N2C(=O)N(C)CC23CCCC3)nc2nc(Nc3ccc(N(C)C(C)=O)cc3)ncc12` [Example 105, N-{4-[(5-Ethynyl-7-{3-methyl-2-oxo-1,3-diazaspiro[4.4]nonan-1-yl}pyrido[2,3-d]pyrimidin-2-yl)amino]phenyl}-N-methylacetamide], the 50% inhibitory concentration (IC50) in assay [1] was 0.1 to 1 µM; in assay [2], above 10 µM; in assay [3], above 3 µM; in assay [4], above 3 µM; in assay [5], above 3 µM.

In the case of `C#Cc1cc(N2C(=O)N(C)CC23CCCC3)nc2nc(Nc3ccc(N(C)C(=O)CN(C)C)cc3)ncc12` [Example 106, 2-(Dimethylamino)-N-{4-[(5-ethynyl-7-{3-methyl-2-oxo-1,3-diazaspiro[4.4]nonan-1-yl}pyrido[2,3-d]pyrimidin-2-yl)amino}phenyl]-N-methylacetamide], the IC50 in assay [1] is 0.1 to 1 µM; in assay [2], 1 to 10 µM; in assay [3] it was above 3 µM; in assay [4], 1 to 3 µM; in assay [5] it was 1 to 3 µM.

As for `C#Cc1cc(N2C(=O)N(C)CC23CCCC3)nc2nc(Nc3ccc(OCCN(C)C)cc3)ncc12` [Example 107], the IC50 was 0.1 to 1 µM in assay [1]; 1 to 10 µM in assay [2]; 1 to 3 µM in assay [3]; 1 to 3 µM in assay [4]; above 3 µM in assay [5].

Consider `C#Cc1cc(N2C(=O)N(C)CC23CCCC3)nc2nc(Nc3ccc(S(C)(=O)=O)cc3)ncc12` [Example 108, 1-{5-Ethynyl-2-[(4-methanesulfonylphenyl)amino]pyrido [2,3-d]pyrimidin-7-yl}-3-methyl-1,3-diazaspiro [4.4]nonan-2-one], for which the half-inhibitory concentration (IC50) in assay [1] was 0.02 to 0.1 µM; in assay [2], above 10 µM; in assay [3] it was above 3 µM; in assay [4] it was above 3 µM; in assay [5] it was 1 to 3 µM.

For the compound `C#Cc1cc(N2C(=O)N(C)CC23CCCC3)nc2nc(Nc3ccc(S(=O)(=O)N(C)C)cc3)ncc12` [Example 109, 4-[(5-Ethynyl-7-{3-methyl-2-oxo-1,3-diazaspiro[4.4]nonan-1-yl}pyrido[2,3-d]pyrimidin-2-yl)amino]-N,N-dimethylbenzenesulfonamide], the IC50 is 0.1 to 1 µM in assay [1]; above 10 µM in assay [2]; above 3 µM in assay [3]; above 3 µM in assay [4]; 1 to 3 µM in assay [5].

Regarding `C#Cc1cc(N2C(=O)N(C)CC23CCCC3)nc2nc(Nc3ccc(S(=O)(=O)N(C)CCN(C)C)cc3)ncc12` [Example 110, N-[2-(Dimethylamino)ethyl]-4-[(5-ethynyl-7-{3-methyl-2-oxo-1,3-diazaspiro[4.4]nonan 1-yl}pyrido[2,3-d]pyrimidin-2-yl)amino]-N-methylbenzenesulfonamide], the IC50 in assay [1] is 0.1 to 1 µM; in assay [2], above 10 µM; in assay [3] it was above 3 µM; in assay [4] it was above 3 µM; in assay [5], above 3 µM.

Consider `C#Cc1cc(N2C(=O)OCC2C2CCCC2)nc2nc(Nc3ccc(N4CCN(C)CC4)cc3)ncc12` (stereo not shown) [Example 111, 4-Cyclopentyl-3-(5-ethynyl-2-{[4-(4-methylpiperazin-1-yl)phenyl]amino}pyrido[2,3-d]pyrimidin-7-yl)-1,3-oxazolidin-2-one], for which the IC50 is below 0.02 µM in assay [1]; 1 to 10 µM in assay [2]; 0.5 to 1 µM in assay [3]; 0.5 to 1 µM in assay [4]; above 3 µM in assay [5].

With `C#Cc1cc(N2C(=O)OCC2CC2CCCC2)nc2nc(Nc3ccc(N4CCN(C)CC4)cc3)ncc12` (stereo not shown) [Example 112, 4-(Cyclopentylmethyl)-3-(5-ethynyl-2-{[4-(4-methylpiperazin-1-yl)phenyl]amino}pyrido[2,3-d]pyrimidin-7-yl)-1,3-oxazolidin-2-one], the IC50 in assay [1] was below 0.02 µM; in assay [2], below 1 µM; in assay [3], 0.5 to 1 µM; in assay [4] it was 0.5 to 1 µM; in assay [5], above 3 µM.

Take `C#Cc1cc(N2CC(C(C)C)OC2=O)nc2nc(Nc3ccc(N4CCN(C)CC4)cc3)ncc12` (stereo not shown) [Example 113, 3-(5-Ethynyl-2-{[4-(4-methylpiperazin-1-yl)phenyl]amino}pyrido[2,3-d]pyrimidin-7-yl)-5-isopropyl-1.3-oxazolidin-2-one]: the concentration for half-maximal inhibition (IC50) was 0.02 to 0.1 µM in assay [1]; above 10 µM in assay [2]; 0.5 to 1 µM in assay [3]; 1 to 3 µM in assay [4]; above 3 µM in assay [5].

As for `C#Cc1cc(N2C(=O)OCC23CCCC3)nc2nc(Nc3ccc(N4CCN(C)CC4)cc3)ncc12` [Example 114, 1-(5-Ethynyl-2-{[4-(4-methylpiperazin-1-yl)phenyl]amino}pyrido[2,3-d]pyrimidin-7-yl)-3-oxa-1-azaspiro[4.4]nonan-2-one], the half-inhibitory concentration (IC50) in assay [1] was below 0.02 µM; in assay [2], below 1 µM; in assay [3], below 0.5 µM; in assay [4] it was 0.5 to 1 µM; in assay [5] it was 1 to 3 µM.

With `C#Cc1cc(N2C(=O)OCC2C2CCCC2)nc2nc(Nc3ccc(N4CCNCC4)cc3)ncc12` (stereo not shown) [Example 115, 4-Cyclopentyl-3-(5-ethynyl-2-{[4-(piperazin-1-yl)phenyl]amino}pyrido[2,3-d]pyrimidin-7-y0)-1,3-oxazolidin-2-one], the IC50 in assay [1] is below 0.02 µM; in assay [2], 1 to 10 µM; in assay [3] it was 0.5 to 1 µM; in assay [4], above 3 µM; in assay [5], above 3 µM.

As to `C#Cc1cc(N2C(=O)OCC2COC)nc2nc(Nc3ccc(N4CCN(C)CC4)cc3)ncc12` (stereo not shown) [Example 116, 3-(5-Ethynyl-2-{[4-(4-methylpiperazin-1-yl)phenyl]amino}pyrido[2,3-d]pyrimidin-7-yl)-4-(methoxymethyl)-1,3-oxazolidin-2-one], the IC50 in assay [1] was below 0.02 µM; in assay [2], 1 to 10 µM; in assay [3], below 0.5 µM; in assay [4], 0.5 to 1 µM; in assay [5], above 3 µM.

As for `C#Cc1cc(NC(=O)NC2CCCC2)nc2nc(Nc3cccc4c3CN(C)C4)ncc12` [Example 117, 3-Cyclopentyl-1-{5-ethynyl-2-[(2-methyl-1,3-dihydroisoindol-4-yl)amino]pyrido[2,3-d]pyrimidin-7-yl}urea], the IC50 was 0.1 to 1 µM in assay [1]; 1 to 10 µM in assay [2]; above 3 µM in assay [3]; above 3 µM in assay [4]; above 3 µM in assay [5].

As to `C#Cc1cc(NC(=O)NC2CCCC2)nc2nc(Nc3ccccc3N3CCCC(CS(C)(=O)=O)C3)ncc12` (stereo not shown) [Example 118, 3-Cyclopentyl-1-[5-ethynyl-2-({2-[3-(methanesulfonylmethyl)piperidin-1-yl]phenyl}amino)pyrido[2,3-d]pyrimidin-7-yl]urea], the IC50 in assay [1] is 1 to 50 µM; in assay [2], above 10 µM; in assay [3], above 3 µM; in assay [4] it was above 3 µM; in assay [5], above 3 µM.

In the case of `C#Cc1cc(NC(=O)NC2CCCC2)nc2nc(Nc3cccc(N(C)[C@H]4C[C@H](CS(C)(=O)=O)C4)c3)ncc12` [Example 122], the IC50 is below 0.02 µM in assay [1]; below 1 µM in assay [2]; below 0.5 µM in assay [3]; below 0.5 µM in assay [4]; 1 to 3 µM in assay [5].
